According to article PMC2099433, “The binding site for neohesperidin dihydrochalcone at the human sweet taste receptor” (BMC Structural Biology, 2007):
Where a chain is given by its changes, count along the chain named. Where a SMILES comes first, the peptide text is derived from it.

What was measured:
[1] = target: T1, hTAS1R2 + hTAS1R3 R725M^5.38 (Homo sapiens, UniProt Q7RTX0+Q8TE23, R725M); experiment: Calcium response (FLIPR), hTAS1R3 mutant coexpressed with hTAS1R2; type: cell-based; settings: variant R725M^5.38; for Emax: read-out: maximal signal (% of wt)
T1 construct: expressed in transfected cells; host or cells: HEK293T cells stably expressing G16Gust44
T1 sequence (Q7RTX0 21-852 R725M): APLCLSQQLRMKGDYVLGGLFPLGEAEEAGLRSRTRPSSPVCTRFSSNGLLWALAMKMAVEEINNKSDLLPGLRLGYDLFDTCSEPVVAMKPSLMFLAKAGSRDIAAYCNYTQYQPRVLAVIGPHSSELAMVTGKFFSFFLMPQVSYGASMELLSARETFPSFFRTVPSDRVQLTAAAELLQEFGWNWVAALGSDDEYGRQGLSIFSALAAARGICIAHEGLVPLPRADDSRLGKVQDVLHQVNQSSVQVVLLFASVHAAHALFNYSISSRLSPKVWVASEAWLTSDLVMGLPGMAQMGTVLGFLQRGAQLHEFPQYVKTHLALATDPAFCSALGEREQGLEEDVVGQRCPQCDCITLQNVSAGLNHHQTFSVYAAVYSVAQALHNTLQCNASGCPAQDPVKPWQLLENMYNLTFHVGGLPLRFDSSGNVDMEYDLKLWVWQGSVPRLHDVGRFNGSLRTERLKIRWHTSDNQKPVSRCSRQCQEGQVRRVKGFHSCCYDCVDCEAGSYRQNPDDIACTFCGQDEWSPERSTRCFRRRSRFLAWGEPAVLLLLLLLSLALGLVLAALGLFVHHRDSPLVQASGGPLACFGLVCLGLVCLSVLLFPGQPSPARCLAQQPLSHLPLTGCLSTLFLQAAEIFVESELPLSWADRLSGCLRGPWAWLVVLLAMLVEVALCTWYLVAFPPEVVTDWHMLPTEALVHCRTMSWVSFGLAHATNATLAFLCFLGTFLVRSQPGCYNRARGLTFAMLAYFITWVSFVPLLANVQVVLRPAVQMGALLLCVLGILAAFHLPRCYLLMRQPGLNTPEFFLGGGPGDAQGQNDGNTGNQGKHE
T1 sequence (Q8TE23 20-839): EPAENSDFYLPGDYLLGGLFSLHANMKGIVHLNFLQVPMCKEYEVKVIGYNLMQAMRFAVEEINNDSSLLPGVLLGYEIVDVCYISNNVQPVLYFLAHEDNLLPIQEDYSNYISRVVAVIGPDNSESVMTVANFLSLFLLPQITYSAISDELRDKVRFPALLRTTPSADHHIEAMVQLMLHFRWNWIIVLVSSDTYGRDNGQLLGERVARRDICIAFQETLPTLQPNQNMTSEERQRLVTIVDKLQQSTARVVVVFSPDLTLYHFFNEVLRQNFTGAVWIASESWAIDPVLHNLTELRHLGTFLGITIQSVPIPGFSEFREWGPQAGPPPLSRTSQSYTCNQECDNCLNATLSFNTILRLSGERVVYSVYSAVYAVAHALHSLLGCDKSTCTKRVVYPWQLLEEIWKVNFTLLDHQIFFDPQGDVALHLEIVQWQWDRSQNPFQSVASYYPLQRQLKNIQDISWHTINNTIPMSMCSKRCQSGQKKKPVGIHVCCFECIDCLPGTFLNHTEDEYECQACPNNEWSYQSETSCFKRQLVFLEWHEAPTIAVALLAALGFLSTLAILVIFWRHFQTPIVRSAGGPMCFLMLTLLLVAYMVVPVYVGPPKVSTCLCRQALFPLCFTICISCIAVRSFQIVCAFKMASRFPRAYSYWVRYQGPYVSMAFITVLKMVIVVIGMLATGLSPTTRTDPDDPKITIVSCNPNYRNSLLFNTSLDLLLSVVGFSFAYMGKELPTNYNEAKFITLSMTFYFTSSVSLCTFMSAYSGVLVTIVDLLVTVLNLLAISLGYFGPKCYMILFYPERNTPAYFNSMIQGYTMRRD
Method in brief: (§1)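 Calcium mobilization was measured by FLIPR in Fluo4-AM-loaded HEK293T cells coexpressing G16Gust44 with the tagged receptor pair. Signals had mock responses removed and were given as ΔF/F.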

[2] = target: T2, hTAS1R2 + hTAS1R3 V779A^6.52 (Homo sapiens, UniProt Q7RTX0+Q8TE23, V779A); experiment: as above; type: cell-based; settings: variant V779A^6.52; for Emax: read-out: maximal signal (% of wt)
T2 construct: expressed in transfected cells; host or cells: HEK293T cells stably expressing G16Gust44
T2 sequence (Q8TE23 20-839): T1 sequence (Q8TE23 20-839)
T2 sequence (Q7RTX0 21-852 V779A): T1 sequence (Q7RTX0 21-852 R725M) with M705R, V759A
Method in brief: as §1

SMILES | EC50 [1] [µM] | Emax [1] [%] | EC50 [2] [µM] | Emax [2] [%]
COc1ccc(CCC(=O)c2c(O)cc(O[C@@H]3O[C@H](CO)[C@@H](O)[C@H](O)[C@H]3O[C@@H]3O[C@@H](C)[C@H](O)[C@@H](O)[C@H]3O)cc2O)cc1O [NHDC, neohesperidin dihydrochalcone] | 1300 ± 400 | 64 ± 14 | 200 ± 100 | 88 ± 14
COC(=O)[C@H](Cc1ccccc1)NC(=O)[C@@H](N)CC(=O)O [aspartame] (HELM PEPTIDE1{D.F.[CO[*:1]]}$$$$V2.0) | 1500 ± 700 | 56 ± 1 | 1200 ± 300 | 52 ± 10
